Measured values taken from patent US20250326744A1, “PIPERAZINE DERIVATIVE OR SALT THEREOF, AND PHARMACEUTICAL COMPOSITION” (priority 2022, published 2025).
Structures can show the parent of a compound that is named as a salt.

What was measured:
[1] = tested on: mexB (PA) strain; assay: Combinational effect with antibacterial agent against Pseudomonas aeruginosa (Test Examples 2 and 4): mexB (PA) strain with LVFX, TC or AZT at 1/4 MIC, EC99; assay type: cell-based; settings: for EC99, combinational effect with AZT, mexB (PA) / EC99, combinational effect with LVFX, mexB (PA) / EC99, combinational effect with TC, mexB (PA): mexB (PA) strain, Test Example 4; for EC99, combinational effect with AZT, mexB (PA) / EC99, mexB (PA), AZT: combined with AZT at 1/4 MIC; for EC99, combinational effect with LVFX, mexB (PA) / EC99, mexB (PA), LVFX: combined with LVFX at 1/4 MIC; for EC99, combinational effect with TC, mexB (PA) / EC99, mexB (PA), TC: combined with TC at 1/4 MIC; for EC99, mexB (PA), AZT / EC99, mexB (PA), LVFX / EC99, mexB (PA), TC: Table 52, Test Example 2, 16 to 20 hours culture, OD595
Outline: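 EC99 denotes the minimum test-compound concentration (range 0–800 μM) that suppresses ≥99% of growth, measured by OD595, when combined with ¼ MIC levofloxacin (LVFX), tetracycline or aztreonam. The efflux-pump mutant mexB (PA), expressing mainly MexAB-OprM, was inoculated at 10^4–5 CFU/well in CAMHB for 16–20 h.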

[2] = tested on: S-3769 strain; assay: Combinational effect with antibacterial agent against Pseudomonas aeruginosa (Test Examples 2 and 4): S-3769 strain with AMK or GM at 1/4 MIC, EC99; assay type: cell-based; settings: for EC99, combinational effect with AMK, S-3769 strain / EC99, S-3769 strain, AMK: combined with AMK at 1/4 MIC; for EC99, combinational effect with AMK, S-3769 strain / EC99, combinational effect with GM, S-3769 strain: Test Example 4; for EC99, combinational effect with GM, S-3769 strain / EC99, S-3769 strain, GM: combined with GM at 1/4 MIC; for EC99, S-3769 strain, AMK / EC99, S-3769 strain, GM: Table 52, Test Example 2, 16 to 20 hours culture, OD595
Outline: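 EC99, the lowest test-compound concentration inhibiting growth by ≥99% (OD595), was measured with aminoglycoside AMK or GM held at ¼ MIC. Strain S-3769, a MexY-overexpressing clinical isolate, was cultured in CAMHB at 10^4 to 5 CFU/well for 16–20 h; compound range 0–800 μM.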

SMILES	EC99, combinational effect with AZT, mexB (PA) [1]	EC99, combinational effect with LVFX, mexB (PA) [1]	EC99, combinational effect with TC, mexB (PA) [1]	EC99, combinational effect with AMK, S-3769 strain [2]	EC99, combinational effect with GM, S-3769 strain [2]	EC99, mexB (PA), AZT [1]	EC99, mexB (PA), LVFX [1]	EC99, mexB (PA), TC [1]	EC99, S-3769 strain, AMK [2]	EC99, S-3769 strain, GM [2]
CCOc1cccc(F)c1CN1CCN(C(=O)[C@H](N)C2CCN(CCc3cc(Cl)ccc3-c3ccoc3)CC2)CC1 [Example 547, Hydrobromide of (R)-2-amino-2-(1-(5-chloro-2-(furan-3-yl)phenethyl)piperidin-4-yl)-1-(4-(2-ethoxy-6-fluorobenzyl)piperazin-1-yl)ethan-1-one]	B (25 μM<EC99≤100 μM)	B (25 μM<EC99≤100 μM)	C (100 μM<EC99)	S (EC99≤12.5 μM)	S (EC99≤12.5 μM)					
N[C@@H](C(=O)N1CCN(Cc2cccc3c2OCCC3)CC1)C1CCN(CCc2cc(Cl)ccc2-c2ccccc2)CC1 [Example 10, Hydrobromide of (R)-2-amino-2-(1-(2-(4-chloro-[1,1′-biphenyl]-2-yl)ethyl)piperidin-4-yl)-1-(4-(chroman-8-ylmethyl)piperazin-1-yl)ethan-1-one]						A (12.5 μM<EC99≤25 μM)	A (12.5 μM<EC99≤25 μM)	A (12.5 μM<EC99≤25 μM)	A (12.5 μM<EC99≤25 μM)	A (12.5 μM<EC99≤25 μM)
CCOc1cccc(F)c1CN1CCN(C(=O)[C@H](N)C2CCN(CCc3cc(Cl)ccc3-c3csc4ccccc34)CC2)CC1 [Example 550, Hydrobromide of (R)-2-amino-2-(1-(2-(benzo[b]thiophen-3-yl)-5-chlorophenethyl)piperidin-4-yl)-1-(4-(2-ethoxy-6-fluorobenzyl)piperazin-1-yl)ethan-1-one]	A (12.5 μM<EC99≤25 μM)	S (EC99≤12.5 μM)	A (12.5 μM<EC99≤25 μM)	A (12.5 μM<EC99≤25 μM)	A (12.5 μM<EC99≤25 μM)					
CCOc1cccc(F)c1CN1CCN(C(=O)[C@H](N)C2CCN(CCc3cc(Cl)ccc3-c3ccncc3)CC2)CC1 [Example 74, Hydrobromide of (R)-2-amino-2-(1-(5-chloro-2-(pyridin-4-yl)phenethyl)piperidin-4-yl)-1-(4-(2-ethoxy-6-fluorobenzyl)piperazin-1-yl)ethan-1-one]						C (100 μM<EC99)	C (100 μM<EC99)	C (100 μM<EC99)	S (EC99≤12.5 μM)	A (12.5 μM<EC99≤25 μM)
CSc1ccccc1CN1CCN(C(=O)[C@H](N)C2CCN(CCc3cc(Cl)ccc3-c3cccc(O)c3)CC2)CC1 [Example 611, Hydrochloride of (R)-2-amino-2-(1-(2-(4-chloro-3′-hydroxy-[1,1-biphenyl]-2-yl)ethyl)piperidin-4-yl)-1-(4-(2-(methylthio)benzyl)piperazin-1-yl)ethan-1-one]	S (EC99≤12.5 μM)	S (EC99≤12.5 μM)	S (EC99≤12.5 μM)	S (EC99≤12.5 μM)	B (25 μM<EC99≤100 μM)					
CCSc1cc(F)ccc1CN1CCN(C(=O)[C@H](N)C2CCN(CCc3cc(Cl)ccc3-c3cccc(N)c3)CC2)CC1 [Example 544, hydrobromide of (R)-2-amino-2-(1-(2-(3′-amino-4-chloro-[1,1′-biphenyl]-2-yl)ethyl)piperidin-4-yl)-1-(4-(2-(ethylthio)-4-fluorobenzyl)piperazin-1-yl)ethan-1-one]	S (EC99≤12.5 μM)	S (EC99≤12.5 μM)	S (EC99≤12.5 μM)	A (12.5 μM<EC99≤25 μM)	S (EC99≤12.5 μM)					
